Key:
[1] = target: Casein kinase I isoform epsilon (Homo sapiens, UniProt P49674)
[2] = target: Cyclin-dependent kinase 5/CDK5 activator 1 (Homo sapiens, UniProt Q00535); format: cell-based, Sf9
[3] = target: Dual specificity protein kinase CLK1 (Homo sapiens, UniProt P49759); format: cell-based, Sf9
[4] = target: Dual specificity protein kinase CLK3 (Homo sapiens, UniProt P49761); format: cell-based, Sf9
[5] = target: T1, Dual specificity tyrosine-phosphorylation-regulated kinase 2 (Homo sapiens, UniProt Q92630)
T1 sequence (Q92630 whole entry): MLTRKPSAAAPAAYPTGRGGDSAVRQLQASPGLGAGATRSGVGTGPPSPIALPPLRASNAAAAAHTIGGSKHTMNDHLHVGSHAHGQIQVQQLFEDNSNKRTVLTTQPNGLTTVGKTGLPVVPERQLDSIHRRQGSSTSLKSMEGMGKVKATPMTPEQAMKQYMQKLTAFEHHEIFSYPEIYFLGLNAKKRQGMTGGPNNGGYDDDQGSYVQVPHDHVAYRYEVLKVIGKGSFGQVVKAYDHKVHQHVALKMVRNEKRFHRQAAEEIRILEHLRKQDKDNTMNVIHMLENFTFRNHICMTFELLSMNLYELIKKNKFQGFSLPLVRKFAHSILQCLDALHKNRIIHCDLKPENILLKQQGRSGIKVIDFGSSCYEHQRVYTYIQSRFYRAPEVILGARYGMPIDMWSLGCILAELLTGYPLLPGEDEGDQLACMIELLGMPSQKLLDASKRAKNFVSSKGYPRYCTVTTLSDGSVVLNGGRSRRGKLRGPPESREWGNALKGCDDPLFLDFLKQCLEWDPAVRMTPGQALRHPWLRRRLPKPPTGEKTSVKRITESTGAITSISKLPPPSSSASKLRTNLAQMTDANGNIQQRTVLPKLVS

[6] = target: T2, Dual specificity tyrosine-phosphorylation-regulated kinase 3 (Homo sapiens, UniProt O43781)
T2 sequence (O43781 whole entry): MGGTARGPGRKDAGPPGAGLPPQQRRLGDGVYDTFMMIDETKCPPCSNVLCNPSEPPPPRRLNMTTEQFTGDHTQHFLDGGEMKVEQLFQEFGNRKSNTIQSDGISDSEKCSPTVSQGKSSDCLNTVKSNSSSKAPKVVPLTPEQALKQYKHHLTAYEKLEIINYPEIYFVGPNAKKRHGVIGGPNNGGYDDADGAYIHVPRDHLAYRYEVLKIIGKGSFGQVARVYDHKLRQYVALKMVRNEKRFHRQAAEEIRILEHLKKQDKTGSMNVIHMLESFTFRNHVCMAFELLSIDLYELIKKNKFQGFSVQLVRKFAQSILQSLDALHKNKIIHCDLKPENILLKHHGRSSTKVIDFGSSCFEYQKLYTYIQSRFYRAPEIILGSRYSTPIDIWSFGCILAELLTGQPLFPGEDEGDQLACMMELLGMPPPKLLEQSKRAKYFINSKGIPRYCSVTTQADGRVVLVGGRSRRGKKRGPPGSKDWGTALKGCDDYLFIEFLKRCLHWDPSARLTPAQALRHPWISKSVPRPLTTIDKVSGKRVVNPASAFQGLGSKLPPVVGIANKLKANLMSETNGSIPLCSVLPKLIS

[7] = target: T3, Dual specificity tyrosine-phosphorylation-regulated kinase 4 (Homo sapiens, UniProt Q9NR20)
T3 sequence (Q9NR20 whole entry): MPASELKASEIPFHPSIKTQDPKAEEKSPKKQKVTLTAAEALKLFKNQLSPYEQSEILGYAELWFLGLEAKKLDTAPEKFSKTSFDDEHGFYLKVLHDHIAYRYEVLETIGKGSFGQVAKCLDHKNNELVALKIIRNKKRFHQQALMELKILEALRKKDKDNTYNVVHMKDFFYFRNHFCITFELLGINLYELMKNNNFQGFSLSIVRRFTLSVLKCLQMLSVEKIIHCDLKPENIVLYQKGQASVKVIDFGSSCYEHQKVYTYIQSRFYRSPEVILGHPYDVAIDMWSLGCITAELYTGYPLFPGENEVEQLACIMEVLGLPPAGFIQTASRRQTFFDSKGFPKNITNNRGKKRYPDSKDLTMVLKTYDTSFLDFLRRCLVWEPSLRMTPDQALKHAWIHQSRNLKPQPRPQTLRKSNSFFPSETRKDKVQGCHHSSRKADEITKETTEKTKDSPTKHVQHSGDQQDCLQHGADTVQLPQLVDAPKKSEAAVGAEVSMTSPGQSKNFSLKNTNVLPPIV

[8] = target: Glycogen synthase kinase-3 beta (Homo sapiens, UniProt P49841); format: cell-based, Sf9
Sequence of Glycogen synthase kinase-3 beta (P49841 whole entry): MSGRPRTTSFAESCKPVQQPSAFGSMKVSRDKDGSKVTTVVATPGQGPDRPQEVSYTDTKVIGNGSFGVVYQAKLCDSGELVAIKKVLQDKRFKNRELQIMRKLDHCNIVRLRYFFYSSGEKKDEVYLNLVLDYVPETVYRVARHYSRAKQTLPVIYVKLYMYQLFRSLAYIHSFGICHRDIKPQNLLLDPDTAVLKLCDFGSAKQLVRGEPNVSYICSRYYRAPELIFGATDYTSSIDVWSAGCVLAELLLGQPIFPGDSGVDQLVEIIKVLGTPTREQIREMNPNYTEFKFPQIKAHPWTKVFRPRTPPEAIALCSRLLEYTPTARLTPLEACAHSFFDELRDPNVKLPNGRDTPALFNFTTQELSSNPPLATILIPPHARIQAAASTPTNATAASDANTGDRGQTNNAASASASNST

[9] = target: Dual specificity protein kinase CLK2 (Homo sapiens, UniProt P49760)
Sequence of Dual specificity protein kinase CLK2 (P49760 whole entry): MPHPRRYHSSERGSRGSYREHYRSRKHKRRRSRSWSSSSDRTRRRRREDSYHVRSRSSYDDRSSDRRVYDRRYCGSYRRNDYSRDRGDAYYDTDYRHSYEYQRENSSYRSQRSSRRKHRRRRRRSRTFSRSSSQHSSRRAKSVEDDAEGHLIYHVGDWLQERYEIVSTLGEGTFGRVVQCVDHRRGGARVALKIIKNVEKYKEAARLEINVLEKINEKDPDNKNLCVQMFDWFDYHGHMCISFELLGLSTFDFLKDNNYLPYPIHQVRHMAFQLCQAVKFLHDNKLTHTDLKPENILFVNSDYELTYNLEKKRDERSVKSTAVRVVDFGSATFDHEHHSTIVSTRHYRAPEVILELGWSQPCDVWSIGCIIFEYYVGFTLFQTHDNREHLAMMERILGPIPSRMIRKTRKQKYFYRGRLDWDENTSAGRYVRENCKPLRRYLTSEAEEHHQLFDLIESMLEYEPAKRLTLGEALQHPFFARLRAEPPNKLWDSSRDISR

[10] = target: Dual specificity protein kinase CLK4 (Homo sapiens, UniProt Q9HAZ1)
Sequence of Dual specificity protein kinase CLK4 (Q9HAZ1 whole entry): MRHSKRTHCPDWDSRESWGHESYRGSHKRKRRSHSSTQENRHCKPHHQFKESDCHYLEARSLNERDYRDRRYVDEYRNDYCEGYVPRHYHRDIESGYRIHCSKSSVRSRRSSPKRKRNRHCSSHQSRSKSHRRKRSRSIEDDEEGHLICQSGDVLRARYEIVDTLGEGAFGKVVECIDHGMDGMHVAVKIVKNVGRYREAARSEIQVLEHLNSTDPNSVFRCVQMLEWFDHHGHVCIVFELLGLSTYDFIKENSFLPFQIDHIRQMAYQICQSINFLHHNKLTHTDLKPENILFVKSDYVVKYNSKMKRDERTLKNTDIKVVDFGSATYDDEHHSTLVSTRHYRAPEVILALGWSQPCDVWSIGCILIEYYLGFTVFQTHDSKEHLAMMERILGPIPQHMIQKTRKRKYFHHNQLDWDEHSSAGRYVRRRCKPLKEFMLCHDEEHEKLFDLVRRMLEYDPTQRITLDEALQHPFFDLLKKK

Sequence of Dual specificity protein kinase CLK1 (P49759 whole entry): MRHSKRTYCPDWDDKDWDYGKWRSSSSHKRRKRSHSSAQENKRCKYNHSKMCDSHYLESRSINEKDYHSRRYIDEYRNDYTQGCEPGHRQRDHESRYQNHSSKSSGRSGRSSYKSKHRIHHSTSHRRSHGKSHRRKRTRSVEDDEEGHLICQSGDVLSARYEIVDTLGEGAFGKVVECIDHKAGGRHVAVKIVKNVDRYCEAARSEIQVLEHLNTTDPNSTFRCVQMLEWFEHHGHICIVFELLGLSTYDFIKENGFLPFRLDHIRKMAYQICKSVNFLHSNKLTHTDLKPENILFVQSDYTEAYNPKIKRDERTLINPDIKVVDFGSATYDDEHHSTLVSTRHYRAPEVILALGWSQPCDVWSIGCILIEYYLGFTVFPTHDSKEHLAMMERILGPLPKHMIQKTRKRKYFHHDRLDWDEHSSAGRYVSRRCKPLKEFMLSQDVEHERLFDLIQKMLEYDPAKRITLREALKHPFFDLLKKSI
Sequence of Dual specificity protein kinase CLK3 (P49761 whole entry): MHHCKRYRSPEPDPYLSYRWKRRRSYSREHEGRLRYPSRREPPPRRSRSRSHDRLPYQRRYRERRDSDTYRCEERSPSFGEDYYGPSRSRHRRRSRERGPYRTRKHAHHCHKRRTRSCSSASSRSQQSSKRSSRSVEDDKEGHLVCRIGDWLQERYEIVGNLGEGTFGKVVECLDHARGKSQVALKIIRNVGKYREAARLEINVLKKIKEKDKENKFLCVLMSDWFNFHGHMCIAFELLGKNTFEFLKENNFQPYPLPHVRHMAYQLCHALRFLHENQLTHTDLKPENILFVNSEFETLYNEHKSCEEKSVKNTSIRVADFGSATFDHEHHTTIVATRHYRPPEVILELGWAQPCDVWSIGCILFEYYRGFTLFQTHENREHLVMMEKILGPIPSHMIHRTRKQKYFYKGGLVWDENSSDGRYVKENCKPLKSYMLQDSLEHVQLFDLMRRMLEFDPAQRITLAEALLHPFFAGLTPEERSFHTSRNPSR
Sequence of Casein kinase I isoform epsilon (P49674 whole entry, canonical isoform): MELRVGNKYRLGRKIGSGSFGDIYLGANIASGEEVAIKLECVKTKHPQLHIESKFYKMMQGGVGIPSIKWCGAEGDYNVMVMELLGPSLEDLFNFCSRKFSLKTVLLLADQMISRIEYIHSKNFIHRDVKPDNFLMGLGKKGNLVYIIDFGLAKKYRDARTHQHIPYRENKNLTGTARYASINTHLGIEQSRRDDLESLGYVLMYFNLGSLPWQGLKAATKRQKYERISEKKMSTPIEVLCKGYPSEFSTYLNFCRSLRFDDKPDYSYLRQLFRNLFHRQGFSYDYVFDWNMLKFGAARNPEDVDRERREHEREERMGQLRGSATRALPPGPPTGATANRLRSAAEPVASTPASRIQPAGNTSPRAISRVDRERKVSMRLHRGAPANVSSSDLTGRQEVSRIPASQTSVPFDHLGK
Sequence of Cyclin-dependent kinase 5/CDK5 activator 1 (Q00535 whole entry): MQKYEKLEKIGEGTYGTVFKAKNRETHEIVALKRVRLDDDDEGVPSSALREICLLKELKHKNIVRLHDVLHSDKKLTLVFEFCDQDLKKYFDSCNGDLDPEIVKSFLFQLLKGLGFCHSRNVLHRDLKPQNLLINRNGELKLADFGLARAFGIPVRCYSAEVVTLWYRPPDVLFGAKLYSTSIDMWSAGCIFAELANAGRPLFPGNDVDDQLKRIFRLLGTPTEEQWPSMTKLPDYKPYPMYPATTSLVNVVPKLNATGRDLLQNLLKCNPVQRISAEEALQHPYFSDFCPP
Sequence of Cyclin-dependent kinase 5/CDK5 activator 1 (Q15078 whole entry, further chain): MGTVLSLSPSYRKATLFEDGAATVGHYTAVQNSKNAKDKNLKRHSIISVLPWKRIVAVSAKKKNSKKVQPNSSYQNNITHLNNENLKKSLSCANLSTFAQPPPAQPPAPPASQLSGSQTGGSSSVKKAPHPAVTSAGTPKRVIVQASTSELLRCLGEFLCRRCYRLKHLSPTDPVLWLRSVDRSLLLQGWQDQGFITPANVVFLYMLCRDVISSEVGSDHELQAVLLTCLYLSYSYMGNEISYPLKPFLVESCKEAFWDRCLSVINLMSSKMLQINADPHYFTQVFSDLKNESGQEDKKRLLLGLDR

Row | Compound | IC50 [1] | IC50 [2] | IC50 [3] | IC50 [4] | IC50 [5] | IC50 [6] | IC50 [7] | IC50 [8] | IC50 [9] | IC50 [10]
1 | CC(C)C[C@H](CF)NC1=N/C(=C\c2ccc3ncsc3c2)C(=O)N1 | > 10000 nM | > 10000 nM | 9 nM | 403 nM | 433 nM | 657 nM | 927 nM | 1560 nM | 27 nM | –
2 | C[C@@H](NC1=N/C(=C\c2ccc3ncsc3c2)C(=O)N1)C1CCCCC1 | > 10000 nM | > 10000 nM | 44 nM | 3020 nM | 3610 nM | – | 6000 nM | > 10000 nM | 304 nM | 36 nM
3 | O=C1NC(Nc2cccc(C(F)(F)F)c2)=N/C1=C\c1ccc2ncsc2c1 | > 10000 nM | > 10000 nM | 193 nM | 7030 nM | 2500 nM | 5730 nM | > 10000 nM | > 10000 nM | 696 nM | –
4 | O=C1CC[C@H](NC2=N/C(=C\c3ccc4ncsc4c3)C(=O)N2)CN1 | > 10000 nM | > 10000 nM | – | 1160 nM | 664 nM | 346 nM | 3260 nM | 8180 nM | 469 nM | 22 nM
5 | CN1CC[C@@](C)(NC2=N/C(=C\c3ccc4ncsc4c3)C(=O)N2)C1=O (stereo in doubt) | > 10000 nM | > 10000 nM | 11 nM | 1130 nM | 795 nM | 390 nM | 1700 nM | 1740 nM | 28 nM | –
6 | O=C1NC(NC[C@@H](O)c2ccccc2)=N/C1=C\c1ccc2ncsc2c1 | – | > 10000 nM | 13 nM | – | 16 nM | – | 181 nM | 2600 nM | – | –
7 | CC(C)C[C@@H](CF)NC1=N/C(=C\c2ccc3ncsc3c2)C(=O)N1 | > 10000 nM | > 10000 nM | 7 nM | 1390 nM | 263 nM | 227 nM | 385 nM | 6290 nM | 33 nM | –
8 | COC(=O)[C@@H](NC1=N/C(=C\c2ccc3ncsc3c2)C(=O)N1)C(C)C | > 10000 nM | > 10000 nM | 16 nM | 791 nM | 328 nM | 560 nM | – | 8240 nM | – | –
9 | O=C1NC(NC2CCNC2=O)=N/C1=C\c1ccc2ncsc2c1 (racemic) | > 10000 nM | > 10000 nM | – | 1150 nM | 1660 nM | 2560 nM | 3120 nM | > 10000 nM | 1030 nM | 33 nM
10 | O=C1NC(NC2CCCNC2=O)=N/C1=C\c1ccc2ncsc2c1 (racemic) | > 10000 nM | > 10000 nM | – | 1680 nM | 2090 nM | 2800 nM | 7290 nM | > 10000 nM | 1320 nM | 35 nM
11 | COC(=O)[C@@H](Cc1ccccc1)NC1=N/C(=C\c2ccc3ncsc3c2)C(=O)N1 | > 10000 nM | > 10000 nM | 122 nM | > 10000 nM | 8380 nM | – | 6820 nM | > 10000 nM | – | –
12 | O=C1NC(Nc2ccc(N3CCOCC3)cc2)=N/C1=C\c1ccc2ncsc2c1 | > 10000 nM | > 10000 nM | – | > 10000 nM | > 10000 nM | > 10000 nM | > 10000 nM | > 10000 nM | > 10000 nM | 4930 nM

Next, values leading:

Row | IC50 [1] | IC50 [2] | IC50 [3] | IC50 [4] | IC50 [5] | IC50 [6] | IC50 [7] | IC50 [8] | IC50 [9] | IC50 [10] | Compound
13 | > 10000 nM | > 10000 nM | 49 nM | 546 nM | 4980 nM | 745 nM | 6490 nM | 9370 nM | – | – | CC(C)C[C@@H](CO)NC1=N/C(=C\c2ccc3ncsc3c2)C(=O)N1
14 | > 10000 nM | > 10000 nM | 125 nM | 927 nM | 1720 nM | 1480 nM | 1680 nM | > 10000 nM | 450 nM | – | CN1CC[C@](C)(NC2=N/C(=C\c3ccc4ncsc4c3)C(=O)N2)C1=O (stereo in doubt)
15 | > 10000 nM | > 10000 nM | 24 nM | 1280 nM | – | 1670 nM | 1260 nM | > 10000 nM | – | – | O=C1NC(NC2CCOCC2)=N/C1=C\c1ccc2ncsc2c1
16 | > 10000 nM | > 10000 nM | 28 nM | 1850 nM | 216 nM | – | 445 nM | > 10000 nM | – | – | COC(=O)[C@H](Cc1ccccc1)NC1=N/C(=C\c2ccc3ncsc3c2)C(=O)N1
17 | – | > 10000 nM | 12 nM | – | 417 nM | – | 4320 nM | > 10000 nM | – | – | O=C1NC(NC[C@H](O)c2ccccc2)=N/C1=C\c1ccc2ncsc2c1
18 | > 10000 nM | > 10000 nM | 17 nM | 914 nM | 549 nM | 531 nM | 538 nM | 8360 nM | 114 nM | – | C[C@@H]1CCCC[C@H]1NC1=N/C(=C\c2ccc3ncsc3c2)C(=O)N1 (racemic)
19 | > 10000 nM | > 10000 nM | 17 nM | 212 nM | 1080 nM | 873 nM | 944 nM | 4570 nM | 183 nM | – | O=C1NC(NC2CC3(CCC3)C2)=N/C1=C\c1ccc2ncsc2c1
20 | > 10000 nM | > 10000 nM | 18 nM | 2100 nM | 1720 nM | – | – | 9970 nM | 121 nM | – | CC(C)(C)OC[C@H](NC1=N/C(=C\c2ccc3ncsc3c2)C(=O)N1)c1ccccc1
21 | > 10000 nM | > 10000 nM | 55 nM | 2130 nM | 798 nM | – | 1130 nM | 4120 nM | 121 nM | 29 nM | CN1CCN(c2cnc(NC3=N/C(=C\c4ccc5ncsc5c4)C(=O)N3)cn2)CC1
22 | > 10000 nM | > 10000 nM | 270 nM | > 10000 nM | > 10000 nM | – | > 10000 nM | > 10000 nM | 2830 nM | 172 nM | O=C1NC(NC2CCCCCC2)=N/C1=C\c1ccc2nnsc2c1
23 | > 10000 nM | > 10000 nM | 883 nM | 1910 nM | 3280 nM | – | 1860 nM | > 10000 nM | 1370 nM | 37 nM | O=C1NC(NC2CCCCC2)=N/C1=C\c1ccc2[nH]cnc2c1
24 | > 10000 nM | > 10000 nM | 19 nM | 484 nM | 953 nM | 394 nM | 764 nM | 2520 nM | – | – | CC(C)C[C@H](CO)NC1=N/C(=C\c2ccc3ncsc3c2)C(=O)N1
25 | > 10000 nM | > 10000 nM | > 10000 nM | > 10000 nM | > 10000 nM | – | – | > 10000 nM | > 10000 nM | 7160 nM | O=C1NC(NC2CCCCC2)=N/C1=C\c1ccc2scnc2c1
